Measurements taken from paper PMC6127322, “Novel Imidazole and Methoxybenzylamine Growth Inhibitors Affecting Salmonella Cell Envelope Integrity and its Persistence in Chickens” (Scientific Reports, 2018).
Values after ≈ are worked out from the molar mass of the structure shown. Like-named read-outs stand apart in the source and are kept apart here.

Columns and labels:
[1] = tested on: Salmonella enterica subsp. enterica serotype Typhimurium; assay: Checkerboard assay, SM and antibiotic combinations; assay type: cell-based; settings: for MBC: Salmonella enterica, TYPHIMURIUM, antibiotic alone, M9 medium, read-out: AB MBCalone
Protocol: The potentiation effect of several antibiotics, commonly used to control Salmonella, was studied in a checkerboard assay. […] The MBC of each antibiotic was determined in M9 medium prior the experiment using a dose-response assay, as described above. For potentiation studies, 100 μl of a S. […] The MBC of each antibiotic was determined as described in the dose-response assay. Bacteria challenged with SMs or antibiotics alone at the same concentrations were used to determine the antibiotic-SM combination effects. […] Further, the bacterial suspension was plated on an agar medium and incubated at 37 °C for 36 hrs. The antibiotic-SM combination effect was calculated based on the determination of the fractional bactericidal concentration (FBC) as previously described[66],[67].

Salmonella Saint-Paul = assay: Dose-response assay (MBC) on Salmonella serovars; assay type: cell-based, Salmonella enterica; settings: serovar Saint-Paul, M9 broth
[2] = tested on: S. Typhimurium LT2 wild-type (WT) strain; assay: Dose-response assay (MIC and MBC determination) in M9 broth; assay type: cell-based, Salmonella enterica subsp. enterica serovar Typhimurium; settings: 12 hrs at 37 °C, read-out: MBC (minimal bactericidal concentration)
Protocol: Typhimurium using high-throughput screening assay in a 96-well plate format. […] Plates were incubated in a Sunrise Tecan kinetic microplate reader for 12 hrs at 37 °C and the optical density (OD) was measured at 600 nm. The percentage of growth inhibition was calculated as: […]. Cultures from wells showing no turbidimetric increase were transferred onto a XLT4 agar plate. Plates were incubated at 37 °C for 36 hrs. […] S. Typhimurium was challenged with a determined concentration of SM as described in the primary screen.

Salmonella Javiana = assay: Dose-response assay (MBC) on Salmonella serovars; assay type: cell-based, Salmonella enterica
S. Typhimurium = assay type: cell-based, Salmonella enterica subsp. enterica serovar Typhimurium
Salmonella Newport = assay: Dose-response assay (MBC) on Salmonella serovars; assay type: cell-based; settings: Salmonella enterica; serovar Newport, M9 broth
Salmonella Heidelberg = assay: Dose-response assay (MBC) on Salmonella serovars; assay type: cell-based; settings: Salmonella enterica; serovar Heidelberg, M9 broth
[3] = tested on: nine Salmonella serotypes; assay: Activity spectrum and dose-response across Salmonella serotypes; assay type: cell-based, Salmonella enterica
Protocol: The 128 SMs inhibiting S. Typhimurium growth (20% or higher) were tested for their antimicrobial effect on nine different Salmonella serovars frequently implicated in foodborne gastroenteritis outbreaks. […] Both screens were performed at 200 µM as described in the primary screening. Growth conditions for each strain are described in Supplementary Table S2.
S. Typhimurium was challenged with a determined concentration of SM as described in the primary screen.

Salmonella Enteritidis = assay: Dose-response assay (MBC) on Salmonella serovars; assay type: cell-based; settings: Salmonella enterica; serovar Enteritidis, M9 broth
[4] = tested on: Kan^R S. Typhimurium in G. mellonella larvae; assay: Efficacy in Salmonella-infected G. mellonella larvae; assay type: in vivo, Galleria mellonella; settings: for Survival of infected larvae: three days
Protocol: Wax moths were selected as mentioned above. For this study, Kan^R S. Typhimurium was used for challenge. First, the virulence of Kan^R S. Typhimurium was assessed in comparison to WT parent S. Typhimurium strain in G. mellonella. Briefly, larvae (n = 20) were infected in one pro-leg with approximately 8.5 × 10^3 S. Typhimurium suspended in 10 mM MgSO4 (8,5 µl of inoculum) and incubated for three days in the dark at 37 °C in a petri dish. Survival was monitored every 12 hrs for three days. Bacterial quantification was performed once the larvae had died (dark pigmentation or no reaction to a mechanical stimulus) or after 72 hrs of incubation. Larvae were washed once with 70% ethanol, twice with sterile distilled water for 30 sec each, and transferred individually into an Eppendorf® tubes containing 1 ml of 1X PBS and homogenized. The mixture was serially diluted, plated on XLT-4 agar plate supplemented with 50 µg/ml kanamycin, and incubated for 36 hrs at 37 °C. Larvae not treated and larvae treated with the buffer mix were included as controls. The virulence of Kan^R and WT S. Typhimurium strains was assessed by comparing the larval mortality and bacterial counts.
To test the effect of SMs on S. Typhimurium in larvae, SMs and Kan^R S. Typhimurium were injected into two different pro-legs and at different time points as previously described. First, the larvae were treated with SMs, then incubated for 2 hrs at 37 °C in a petri dish, and infected with approximately 8.5 × 10^3 of Kan^R S. Typhimurium per larva. Summary of treatments are described in Supplementary Table S3. Larvae treated with 50 mg/kg chloramphenicol were used as control (lowest concentration of antibiotic allowing 100% larva survival rate; see Supplementary Fig. S3F).
34 Supplemental Table 3. SM treatment groups: wax moth study
Groups Treatment S. Typhimurium*
Negative control 30% DMSO Yes
36 At the given concentration, SMs were soluble at 30% DMSO and higher. Asterisk:
37 larvae were infected with approximately 3.5 X 104 S. Typhimurium bacteria per […]

[5] = antibiotic combined with SM1 at the concentration in the next cell
[6] = antibiotic combined with SM3 at the concentration in the next cell
[7] = antibiotic combined with SM4 at the concentration in the next cell
[8] = antibiotic combined with SM5 at the concentration in the next cell

SMILES	MBC ([1]; 12 h) [µg/mL]	AB MBCcombined [1, 6] [µg/mL]	AB MBCcombined [1, 7] [µg/mL]	AB MBCcombined [1, 8] [µg/mL]	Combination effect (FBC class) ([1]; antibiotic with SM1)	Combination effect (FBC class) ([1]; antibiotic with SM3)	Combination effect (FBC class) ([1]; antibiotic with SM4)	Combination effect (FBC class) ([1]; antibiotic with SM5)	MBC [2] [µM]	also measured
CO/N=C(\C(=O)N[C@@H]1C(=O)N2C(C(=O)O)=C(COC(C)=O)CS[C@H]12)c1csc(N)n1 [Cefotaxime]	3.2	3.2	3.2	3.2	c (Indifferent (FBC > 1.0 and ≤2.0; reduction in MBCs inferior to 50% for both antibiotic and SM))	c (Indifferent (FBC > 1.0 and ≤2.0; reduction in MBCs inferior to 50% for both antibiotic and SM))	c (Indifferent (FBC > 1.0 and ≤2.0; reduction in MBCs inferior to 50% for both antibiotic and SM))	c (Indifferent (FBC > 1.0 and ≤2.0; reduction in MBCs inferior to 50% for both antibiotic and SM))		AB MBCcombined [1, 5]: 3.2 µg/mL
CC[C@H]1OC(=O)[C@H](C)[C@@H](O[C@H]2C[C@@](C)(OC)[C@@H](O)[C@H](C)O2)[C@H](C)[C@@H](O[C@@H]2O[C@H](C)C[C@H](N(C)C)[C@H]2O)[C@](C)(O)C[C@@H](C)C(=O)[C@H](C)[C@@H](O)[C@]1(C)O [Erythromycin]	200	200	200	200	c (Indifferent (FBC > 1.0 and ≤2.0; reduction in MBCs inferior to 50% for both antibiotic and SM))	c (Indifferent (FBC > 1.0 and ≤2.0; reduction in MBCs inferior to 50% for both antibiotic and SM))	c (Indifferent (FBC > 1.0 and ≤2.0; reduction in MBCs inferior to 50% for both antibiotic and SM))	c (Indifferent (FBC > 1.0 and ≤2.0; reduction in MBCs inferior to 50% for both antibiotic and SM))		AB MBCcombined [1, 5]: 200 µg/mL
C[C@@H](O)[C@H]1C(=O)N2C(C(=O)O)=C(S[C@@H]3CN[C@H](C(=O)N(C)C)C3)[C@H](C)[C@H]12 [Meropenem]	0.2		0.2	0.2	b (Additive effect (FBC > 0.5 and ≤ 1.0; percentage reduction in MBCs between 50% and 75% for both antibiotic and SM))	c (Indifferent (FBC > 1.0 and ≤2.0; reduction in MBCs inferior to 50% for both antibiotic and SM))	c (Indifferent (FBC > 1.0 and ≤2.0; reduction in MBCs inferior to 50% for both antibiotic and SM))	c (Indifferent (FBC > 1.0 and ≤2.0; reduction in MBCs inferior to 50% for both antibiotic and SM))		MBC [1]: 0.2 µg/mL
CCn1cc(C(=O)O)c(=O)c2ccc(C)nc21 [Nalidixic acid]	16	16	16	16	c (Indifferent (FBC > 1.0 and ≤2.0; reduction in MBCs inferior to 50% for both antibiotic and SM))	c (Indifferent (FBC > 1.0 and ≤2.0; reduction in MBCs inferior to 50% for both antibiotic and SM))	c (Indifferent (FBC > 1.0 and ≤2.0; reduction in MBCs inferior to 50% for both antibiotic and SM))	c (Indifferent (FBC > 1.0 and ≤2.0; reduction in MBCs inferior to 50% for both antibiotic and SM))		MBC [1]: 16 µg/mL
CN(CCO)CC(O)Cn1c2ccc(Br)cc2c2cc(Br)ccc21 (stereo not drawn) [SM2]									100 (≈ 45.6 µg/mL)	MBC (Salmonella Saint-Paul): 200 µM (≈ 91.2 µg/mL); MBC ([2]; Salmonella enterica): 100 µM (≈ 45.6 µg/mL); MBC (Salmonella Javiana): 200 µM (≈ 91.2 µg/mL); Concentration in which resistant bacteria were able to grow (S. Typhimurium; M9 broth, 4X MBC): 400 µM; Resistance development of S. Typhimurium (S. Typhimurium; lethal dose (2X MBC) on solid medium or repeated exposure to sub-lethal dose (0.75X MBC) in liquid medium): developed resistance; MBC (Salmonella Newport): 200 µM (≈ 91.2 µg/mL); MBC (Salmonella Heidelberg): 200 µM (≈ 91.2 µg/mL); Effect against the nine Salmonella serotypes ([3]; 200 µM, M9 broth): cidal; MBC ([3]; Salmonella, read-out: MBCs among the nine serotypes): 100 to 200 µM (≈ 45.6 to 91.2 µg/mL); MBC (Salmonella Enteritidis): 200 µM (≈ 91.2 µg/mL)
O=[N+]([O-])c1ccc(F)c(N=Cc2cc(Cl)cc(Cl)c2O)c1 [SM7]									50 (≈ 16.5 µg/mL)	
COc1cccc(N=Cc2cc(Cl)cc(Cl)c2O)c1 [SM8]									100 (≈ 29.6 µg/mL)	
O=C(N[C@H](CO)[C@H](O)c1ccc([N+](=O)[O-])cc1)C(Cl)Cl [chloramphenicol]										Survival of infected larvae ([4]; 50 mg/kg): 100%; Survival of infected larvae ([4]; 50, 75, and 100 mg/kg, treated 2 hrs before infection): 100%; Lowest concentration allowing 100% larva survival rate ([4]; infected larvae): 50 mg/kg
